Source: publication PMC2409716 (British Journal of Cancer, 2004)
Read-outs that look alike come from different tables or passages of the source.

Experiments:
[1] = human, in vivo
[2] = tested on: UGT1A; conditions: 2002, cited from earlier work
[3] = clinical; conditions: human
[4] = Noncompartmental plasma pharmacokinetics of irinotecan and SN-38 with/without R115777
[5] = set-up: method as in earlier work; conditions: ref unpublished data, Johnson & Johnson Pharmaceutical Research and Development, cited from earlier work
[6] = tested on: patients with a solid malignancy; test: Phase I toxicity evaluation (NCI common toxicity criteria v2.0, DLT/MTD) of irinotecan with oral R115777; assay type: in vivo, human
Description: In the continuous regimen, R115777 was administered on days 3–21 of cycle 1, and then continuously thereafter, starting again on day 1 of subsequent cycles. In the intermittent regimen, R115777 was administered on days 3–14 of the first cycle, and then starting again on day 1 of subsequent cycles, but without administration on days 15–21.
Three patients were accrued at the starting dose level, and in the absence of DLT, another three patients were entered at the next dose level. For safety reasons, the next dose level was not opened until at least three patients were assessable for toxicity in the first cycle. In case only one patient developed DLT (see below), the dose level was expanded with additional patients to a total of six. […] The MTD (recommended dose) was defined as one dose level below the level at which ⩾2 of six patients experienced DLT.
Toxicity was assessed by the National Cancer Institute Version 2.0 common toxicity criteria on a scale graded 0–4 (Available: http://ctep.cancer.gov/reporti ng/ctc.html (accessed: February 27, 2004)). […] Tumours were assessed radiologically before patients were enrolled on the study, and after every even-numbered cycle. […]

[7] = human, in vivo, 350 mg
[8] = tested on: CYP3A4; set-up: method as in Bohets, 1998; conditions: human hepatic microsomal preparations; at in vitro concentrations five-fold higher than the peak concentrations observed in the present study; ref Bohets, 1998; cited from earlier work
[9] = tested on: ABCB1 (P-glycoprotein); set-up: method as in earlier work; conditions: ref unpublished data, Johnson & Johnson Pharmaceutical Research and Development, cited from earlier work
[10] = clinical; conditions: human, plasma, po
[11] = Noncompartmental plasma pharmacokinetics of R115777 with/without irinotecan; conditions: for AUC12 h Ratio (R115777 with irinotecan to R115777 alone) / Cmax Ratio (R115777 with irinotecan to R115777 alone): least-squares means, 90% confidence limits in parentheses; for tmax: median
[12] = preclinical studies, ref Gagne et al
[13] = Continuous, (+) R115777 200 mg b.i.d. (cycle 2), irinotecan 200–350 mg m^−2, dose-adjusted to 350 mg m^−2, mean±s.d., 11–13 patients
[14] = Intermittent, oral R115777 200–400 mg b.i.d., dose-normalised to 200 mg, (+) Irinotecan 350 mg m^−2, mean±s.d., 12–13 patients
[15] = continuous, relative to monotherapy, not significant
[16] = intermittent regimens, not statistically significant

CCc1c2c(nc3ccc(O)cc13)-c1cc3c(c(=O)n1C2)COC(=O)[C@]3(O)CC [SN-38, 7-ethyl-10-hydroxycamptothecin]
AUCcar Mean diff [1]: -26.7 ± 10.1 ng·h/mL | AUClac Mean diff [1]: -59.7 ± 34.7 ng·h/mL | REClac (relative extent of conversion, AUCSN-38/AUCirinotecan × 100%, lactone) [1]: 6.91±3.05% | REClac Mean diff [1]: −0.57±0.50% | RECtotal (relative extent of conversion, AUCSN-38/AUCirinotecan × 100%, total) [1]: 2.72±1.02% | RECtotal Mean diff [1]: −0.09±0.13% | isozymes with a minor role in glucuronidation [2, 12]: UGT1A6, UGT1A8, and UGT1A10 | major isozymes involved in glucuronidation [2, 12]: UGT1A1, UGT1A7, and UGT1A9 | half-life ([3]; in vivo): 13.4 ± 4.44 h | half-life ([3]; in vivo, 350 mg): 18.1 ± 13.1 h | Cmax ([3]; plasma, intravenous): 41.5 ± 20.1 ng/mL | AUC(0-t) ([3]; plasma, intravenous, 350 mg): 326 ± 134 ng·h/mL | AUC48 h [4, 13]: 569 ± 328 ng·h/mL | Cmax [4, 13]: 70.2 ± 49.6 ng/mL | Cmax ([4]; Continuous, (−) R115777 (cycle 1), irinotecan 200–350 mg m^−2, dose-adjusted to 350 mg m^−2, mean±s.d., 11–13 patients): 63.4 ± 37.4 ng/mL | AUC48 h ([4]; Intermittent, (+) R115777 200–400 mg b.i.d. (cycle 2), irinotecan 350 mg m^−2, mean±s.d., 13 patients): 375 ± 146 ng·h/mL

CC(=O)O[C@@]12CO[C@@H]1C[C@H](O)[C@@]1(C)C(=O)[C@H](O)C3=C(C)[C@@H](OC(=O)[C@H](O)[C@@H](NC(=O)OC(C)(C)C)c4ccccc4)C[C@@](O)([C@@H](OC(=O)c4ccccc4)[C@H]21)C3(C)C [docetaxel]
plasma AUC of docetaxel ([5]; continuous R115777 (200 mg b.i.d.), subset of subjects): relatively unchanged | effect of R115777 on the systemic exposure to docetaxel ([5]; single-dose administration of R115777 (200 or 300 mg)): little effect

CCc1c2c(nc3ccc(OC(=O)N4CCC(N5CCCCC5)CC4)cc13)-c1cc3c(c(=O)n1C2)COC(=O)[C@]3(O)CC [irinotecan]
MTD (irinotecan dose in the combination) ([6]; given every 3 weeks, with R115777 300 mg b.i.d. for 14 consecutive days): 350 mg m^−2 | AUC48 h [7]: 20 270±6020 ng h ml^−1 | AUCcar Mean diff [1]: -1950 ± 641 ng·h/mL | AUClac Mean diff [1]: -269 ± 101 ng·h/mL | Cmax ([3]; in vivo): 3620 ± 632 ng/mL

Cn1cncc1[C@@](N)(c1ccc(Cl)cc1)c1ccc2c(c1)c(-c1cccc(Cl)c1)cc(=O)n2C [R115777, (R)-6-[amino(4-chlorophenyl)(1-methyl-1H-imidazol-5-yl)methyl]-4-(3-chloro-phenyl)-1-methyl-2(1H)-quinolinone]
MTD (R115777 dose in the combination) ([6]; oral, 14 consecutive days in 21-day cycles, with irinotecan 350 mg m^−2 every 3 weeks): 300 mg b.i.d. | effect on CYP3A4 activity [8]: inhibit CYP3A4 activity | inhibition of P-glycoprotein ([9]; at physiologically relevant concentrations): does not significantly inhibit | ABCB1 substrate ([9]; preliminary data): not likely to be a substrate | isozyme with a minor role in N-glucuronidation ([2]; ref Mannens et al): UGT1A3 | prominent isozyme producing the N-glucuronide ([2]; ref Mannens et al): UGT1A4 | tmax [10]: 2.1 h | AUC(0-t) ([10]; 200 mg): 3240 ± 1590 ng·h/mL | Cmax ([10]; 200 mg): 840 ± 551 ng/mL | tmax ([10]; 200 mg): 2 h | AUC12 h Ratio (R115777 with irinotecan to R115777 alone) ([11]; Continuous): 101 (68–149) percent | Cmax Ratio (R115777 with irinotecan to R115777 alone) ([11]; Continuous): 93 (63–137) percent | Cmax ([11]; Continuous, oral R115777 200 mg b.i.d., (+) Irinotecan 200–350 mg m^−2, mean±s.d., 11–13 patients): 735 ± 377 ng/mL | AUC12 h Ratio (R115777 with irinotecan to R115777 alone) ([11]; Intermittent): 109 (93–127) percent | Cmax Ratio (R115777 with irinotecan to R115777 alone) ([11]; Intermittent): 106 (89–126) percent | AUC12 h [11, 14]: 3170 ± 1550 ng·h/mL | Cmax [11, 14]: 663 ± 296 ng/mL | tmax ([11]; Intermittent, oral R115777 200–400 mg b.i.d., (+) Irinotecan 350 mg m^−2, 12–13 patients): 2.0 h | tmax ([11]; Intermittent, oral R115777 200–400 mg b.i.d., (−) Irinotecan, 12–13 patients): 2.0 h | time at which peak plasma concentrations were observed ([11]; after oral administration, with or without co-administration of irinotecan): 2 h | decrease in the peak concentration in the combination therapy [11, 15]: 7.0% | increase in AUC in the combination therapy [11, 15]: 1.0% | increase in AUC following administration of irinotecan [11, 16]: 9.0% | increase in peak concentration following administration of irinotecan [11, 16]: 6.0%
